Test: In vivo pharmacokinetics in female BALB/c mice
Set-up: species or system mouse
Details: for AUC / Cmax: po, 5 mg/kg orally by gavage
Description: All procedures involving animals were performed in accordance with national Home Office regulations under the Animals (Scientific Procedures) Act 1986 and within guidelines set out by the Institute's Animal Ethics Committee and the United Kingdom Coordinating Committee for Cancer Research's ad hoc Committee on the Welfare of Animals in Experimental Neoplasia. Female BALB/c mice (Charles River Laboratories) at 6 weeks of age were used for the PK analyses. The mice were dosed orally by gavage (5 mg/kg in DMSO:water 1:19 v:v; n=6) or intravenously in the tail vein (1 mg/kg in DMSO:Tween20:saline 10:1:89 v:v:v; n=6). Blood samples (˜20 μL) were taken from the tail vein from each group of mice (2 groups, 3 mice/group) alternated at 5, 15 and 30 minutes, 1, 2, 4 and 6 and 8 hours after dosing. For clarity, group 1 was bled at 5 minutes, 30 minutes, 2 hours and 6 hours; group 2 was bled at 15 minutes, 1 hour, 4 hours and 8 hours. Plasma samples were snap frozen in liquid nitrogen and then stored at −80° C. prior to analysis.
Test compound solutions (1 mg/mL in DMSO) were used to make stock Standard Curve (SC) and Quality Control (QC) solutions at appropriate concentrations. Blank plasma was spiked with stock solutions to produce a 9-point standard curve ranging from 1.5-10,000 […]; with 2 QC concentrations within this range and where the DMSO concentration was 10% of the plasma volume. Plasma PK samples, Standards and QC's were added to individual Eppendorf tubes and DMSO (10% of plasma volume) was added to the plasma PK samples. SC, QC and plasma samples were extracted with methanol (100 μL) containing internal standard. Following protein precipitation, the samples were centrifuged for 10 minutes in a refrigerated centrifuge (4° C.) at 14000 rpm. The supernatants were removed to a 96-well plate and centrifuged for a further 10 minutes in a refrigerated centrifuge (4° C.) at 3700 rpm. Samples were analysed by Liquid Chromatography Mass Spectrometry (LC-MS/MS) for the compound plasma concentrations. Non-compartmental analysis was performed on plasma concentration data using the Excel macro PK Solver 2.0.

| Structure (SMILES) | F (5 mg/kg po vs 1 mg/kg iv) | clearance (mouse, plasma, iv, 1 mg/kg intravenously, read-out: Cl iv) | AUC (mouse, plasma) | Cmax (mouse, plasma) |
| --- | --- | --- | --- | --- |
| O=C1CCc2cc(NC(=O)c3scnc3-c3cccc(F)c3)ccc2N1 [ALDHI-1003, 4-(3-fluorophenyl)-N-(2-oxo-3,4-dihydro-1H-quinolin-6-yl)thiazole-5-carboxamide] | 100% | 1.33 L/h/kg | 13.3 µM·h | 6.1 µM |
| CN(CCOc1ccc2c(c1)CCC(=O)N2)C(=O)c1cccc(F)c1 [ALDHI-3008, 3-fluoro-N-methyl-N-[2-[(2-oxo-3,4-dihydro-1H-quinolin-6-yl)oxy]ethyl]benzamide] |  |  | 1.5 µM·h | 1.8 µM |
